Activity calls are given as the source filed them. No cut-off for these calls is given here.

Test system in the first experiment: not listed separately
The experiment in a line: Cellular uptake in human NAMALWA cells assessed as fluorescence intensity at 1 uM after 2 hrs by FACS analysis relative to control. The note with it: NAMALVA. The format is functional, cell-based. For orientation: A flow cytometer gives signals particle by particle.
For `CCC1=C(C)/C(=C(\c2ccc(N)cc2)c2c(C)c(CC)c(C)n2B(F)F)N=C1C`, the Flu intensity was found to be 3180.
Still for that read-out and setting: as for `CN(C)S(=O)(=O)c1ccc(N2CCN(C(=O)CNCCCNCCCCNCCCN)CC2)c2nonc12`, the figure is 0.
Consider `CCN(CC)c1ccc2c(-c3ccc(S(=O)(=O)[O-])cc3S(=O)(=O)NCCCNCCCCNCCCN)c3ccc(=[N+](CC)CC)cc-3oc2c1`, for which the Flu intensity is 1.3.
On to `NCCCNCCCCNCCCNc1ccc(N)c2nonc12`, for which the Flu intensity came out at 0.
Still for that read-out and setting: then `CCN(CC)c1ccc2c(-c3ccc(S(=O)(=O)NCCCNCCCCNCCCN)cc3S(=O)(=O)[O-])c3ccc(=[N+](CC)CC)cc-3oc2c1`, with 2.9.
The same measure, in the same setting: then `NCCCNCCCCNCCCNC(=S)Nc1ccc(-c2c3ccc(=O)cc-3oc3cc(O)ccc23)c(C(=O)O)c1`, with 7.9; and `NCCCNCCCCNCCCNc1ccc([N+](=O)[O-])c2nonc12`, with 65.
The same measure, in the same setting: then `O=[N+]([O-])c1ccc(N2CCNCC2)c2nonc12`, with 1.1.
In the case of `CNc1ccc([N+](=O)[O-])c2nonc12`, the Flu intensity came to 0.5.
The same measure, in the same setting: as for `CN(C)S(=O)(=O)c1ccc(NCCCNCCCCNCCCN)c2nonc12`, the figure is 0.
Regarding `O=[N+]([O-])c1ccc(NCCCNCCCCNCCCNc2ccc([N+](=O)[O-])c3nonc23)c2nonc12`, the Flu intensity is 627.
The same measure, in the same setting: then `CN(CCCNCCCCNCCCN)c1ccc([N+](=O)[O-])c2nonc12`, with 56; and `CCC1=C(C)/C(=C(\c2ccc(NC(=O)CNCCCNCCCCNCCCN)cc2)c2c(C)c(CC)c(C)n2B(F)F)N=C1C`, with 839; and `NCCCNCCCCNCCCNCC(=O)N1CCN(c2ccc([N+](=O)[O-])c3nonc23)CC1`, with 2.9.
As for `CCC1=C(C)/C(=C(\c2ccc([N+](=O)[O-])cc2)c2c(C)c(CC)c(C)n2B(F)F)N=C1C`, the Flu intensity was determined as 1390.
For the molecule `CCN(CC)c1ccc2c(-c3cccc(NC(=S)NCCCNCCCCNCCCN)c3C(=O)[O-])c3ccc(=[N+](CC)CC)cc-3oc2c1`, the Flu intensity stood at 15.
For `NCCCNCCCCN(CCCN)C(=S)Nc1ccc(-c2c3ccc(=O)cc-3oc3cc(O)ccc23)c(C(=O)O)c1`, the Flu intensity was 8.1.

Test system in the next experiment: not listed separately
The experiment in a line: Cellular uptake in F14512 co-cultured human NAMALWA cells assessed as decrease in fluorescence at 0.1 uM after 2 hrs by FACS analysis relative to control. Also noted: scale not given: the % may be the effect or the level left. The note with it: NAMALVA. The experiment is classed as functional, cell-based.
In the case of `CCC1=C(C)/C(=C(\c2ccc(N)cc2)c2c(C)c(CC)c(C)n2B(F)F)N=C1C`, the Activity stood at 50%.
Still for that read-out and setting: then `CN(C)S(=O)(=O)c1ccc(N2CCN(C(=O)CNCCCNCCCCNCCCN)CC2)c2nonc12`, with “inactive”.
Consider `CCN(CC)c1ccc2c(-c3ccc(S(=O)(=O)[O-])cc3S(=O)(=O)NCCCNCCCCNCCCN)c3ccc(=[N+](CC)CC)cc-3oc2c1`, for which the result was inactive.
Take `NCCCNCCCCNCCCNc1ccc(N)c2nonc12`: the outcome was inactive.
On the same count and under the same terms, then `CCN(CC)c1ccc2c(-c3ccc(S(=O)(=O)NCCCNCCCCNCCCN)cc3S(=O)(=O)[O-])c3ccc(=[N+](CC)CC)cc-3oc2c1`, with “inactive”; and `NCCCNCCCCNCCCNC(=S)Nc1ccc(-c2c3ccc(=O)cc-3oc3cc(O)ccc23)c(C(=O)O)c1`, with “inactive”.
For the molecule `NCCCNCCCCNCCCNc1ccc([N+](=O)[O-])c2nonc12`, the Activity is above 70%.
Same read-out and setting: as for `O=[N+]([O-])c1ccc(N2CCNCC2)c2nonc12`, the entry is “inactive”; as for `CNc1ccc([N+](=O)[O-])c2nonc12`, “inactive”.
On the same count and under the same terms, then `CN(C)S(=O)(=O)c1ccc(NCCCNCCCCNCCCN)c2nonc12`, with “inactive”; and `O=[N+]([O-])c1ccc(NCCCNCCCCNCCCNc2ccc([N+](=O)[O-])c3nonc23)c2nonc12`, with “inactive”; and `CN(CCCNCCCCNCCCN)c1ccc([N+](=O)[O-])c2nonc12`, with above 70%.
On the same count and under the same terms, then `CCN(CC)c1ccc2c(-c3ccc(NC(=S)NCCCNCCCCNCCCN)cc3C(=O)[O-])c3ccc(=[N+](CC)CC)cc-3oc2c1`, with “inactive”.
For `CCC1=C(C)/C(=C(\c2ccc(NC(=O)CNCCCNCCCCNCCCN)cc2)c2c(C)c(CC)c(C)n2B(F)F)N=C1C`, the Activity was determined as 50%.
Regarding `NCCCNCCCCNCCCNCC(=O)N1CCN(c2ccc([N+](=O)[O-])c3nonc23)CC1`, the result was inactive.
Still for that read-out and setting: as for `CCC1=C(C)/C(=C(\c2ccc([N+](=O)[O-])cc2)c2c(C)c(CC)c(C)n2B(F)F)N=C1C`, the figure is 50%; as for `CCN(CC)c1ccc2c(-c3cccc(NC(=S)NCCCNCCCCNCCCN)c3C(=O)[O-])c3ccc(=[N+](CC)CC)cc-3oc2c1`, “inactive”.
Consider `NCCCNCCCCN(CCCN)C(=S)Nc1ccc(-c2c3ccc(=O)cc-3oc3cc(O)ccc23)c(C(=O)O)c1`, for which the result was inactive.

The subject of a further experiment is CHO-MG. As to the kind of experiment: Differential fluorescence intensity index, ratio of cellular uptake in Chinese hamster CHO cells expressing PTS to cellular uptake in PTS deficient […] CHO-MG cells at 1 uM after 2 hrs by microscopy and FACS analysis. The experiment is classed as functional, Cricetulus griseus.
Details: not given
Turning to `NCCCNCCCCNCCCNc1ccc([N+](=O)[O-])c2nonc12`, the “fold change (FC)” value turned out to be 10.
In the case of `CN(CCCNCCCCNCCCN)c1ccc([N+](=O)[O-])c2nonc12`, the “fold change (FC)” value is 10.

The same experiment, now with this note: Cricetulus griseus.
With `CNc1ccc([N+](=O)[O-])c2nonc12`, the “fold change (FC)” value was “inactive”.
Same read-out and setting: then `O=[N+]([O-])c1ccc(NCCCNCCCCNCCCNc2ccc([N+](=O)[O-])c3nonc23)c2nonc12`, with “inactive”.
In the case of `CCC1=C(C)/C(=C(\c2ccc(NC(=O)CNCCCNCCCCNCCCN)cc2)c2c(C)c(CC)c(C)n2B(F)F)N=C1C`, the “fold change (FC)” value was “inactive”.
The same measure, in the same setting: as for `NCCCCNc1ccc([N+](=O)[O-])c2nonc12`, the entry is “inactive”.

(Values after ChEMBL document CHEMBL1158407, “Synthesis of conjugated spermine derivatives with 7-nitrobenzoxadiazole (NBD), rhodamine and bodipy as new fluorescent probes for the polyamine transport system” (2009).)
